Here are results for 8 compounds from US12428406B2 (PMV Pharmaceuticals, Inc., priority 2019, dated 2025).

T1 sequence (P04637 94-312, change not shown): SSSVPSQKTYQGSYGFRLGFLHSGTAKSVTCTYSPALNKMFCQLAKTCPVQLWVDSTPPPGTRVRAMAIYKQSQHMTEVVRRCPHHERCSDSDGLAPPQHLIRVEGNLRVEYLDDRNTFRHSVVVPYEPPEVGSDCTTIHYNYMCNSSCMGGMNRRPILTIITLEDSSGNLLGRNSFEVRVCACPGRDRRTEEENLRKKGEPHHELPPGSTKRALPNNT

The experiment concerns the target T1, p53 Y220C (Homo sapiens, UniProt P04637, Y220C).
T1 construct: The recombinant protein was a truncation mutant containing only amino acids 94-312 of p53; made in house; host or cells: E. coli
The experiment can be described thus: In vitro DNA binding activity assay (HTRF / TR-FRET): stabilization of p53 Y220C and increase of its DNA binding activity. Format: biochemical. Conditions: recombinant His-tagged p53 Y220C DNA binding domain (aa 94-312), biotin-labeled consensus DNA, incubated at 27° C. or 29° C. for 60 min. Put shortly: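 Homogeneous time-resolved fluorescence with E. coli-derived p53 Y220C and biotinylated consensus DNA. Room-temperature incubations of 15 and 20 min precede reading. SC150 denotes the compound concentration required for 50% increased DNA binding.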
Consider `CN(C)[C@H]1CC[C@@H](Nc2cccc3c2cc(C#CCOc2ccc(S(C)(=O)=O)cc2N)n3CC(F)(F)F)CC1` [Compound 94A, (1S,4S)-N4-{2-[3-(2-amino-4-methane-sulfonylphenoxy)prop-1-yn-1-yl]-1-(2,2,2-trifluoroethyl)-1H-indol-4-yl}-N^1,N^1-dimethylcyclohexane-1,4-diamine], for which the “SC150 (concentration of the compound required to increase the DNA binding activity by 50%)” value was “+++ (+++ = 0.1 μM ≤ SC150 < 0.2 μM)”. On to `CCOc1cc(S(C)(=O)=O)ccc1NCC#Cc1cc2c(N[C@H]3CC[C@H](N(C)C)CC3)cccc2n1CC(F)(F)F` [Compound 95A, (1R,4R)—N^4-(2-{3-[(2-ethoxy-4-methanesulfonylphenyl)amino]prop-1-yn-1-yl}-1-(2,2,2-trifluoroethyl)-1H-indol-4-yl)-N^1,N^1-dimethylcyclohexane-1,4-diamine], for which the “SC150 (concentration of the compound required to increase the DNA binding activity by 50%)” value was “+ (+ = 0 μM ≤ SC150 < 0.05 μM)”.

Consider `CCOc1cc(S(C)(=O)=O)ccc1NCC#Cc1cc2c(N[C@H]3CC[C@@H](N(C)C)CC3)cccc2n1CC(F)(F)F` [Compound 96A, (1S,4S)-N^4-(2-{3-[(2-ethoxy-4-methane-sulfonylphenyl)amino]prop-1-yn-1-yl}-1-(2,2,2-trifluoroethyl)-1H-indol-4-yl)-N^1,N^1-dimethylcyclohexane-1,4-diamine], for which the “SC150 (concentration of the compound required to increase the DNA binding activity by 50%)” value was “++ (++ = 0.05 μM ≤ SC150 < 0.1 μM)”. For the compound `CNC(=O)c1ccc(NCC#Cc2cc3c(N[C@H]4CC[C@@H](N(C)C)CC4)cccc3n2CC(F)(F)F)c(O)c1` [Compound 97A, 3-hydroxy-N-methyl-4-{[3-(4-{[(1S,4S)-4-(dimethylamino)cyclo-hexyl]amino}-1-(2,2,2-trifluoroethyl)-1H-indol-2-yl)prop-2-yn-1-yl]amino}benzamide], the “SC150 (concentration of the compound required to increase the DNA binding activity by 50%)” value was “+ (+ = 0 μM ≤ SC150 < 0.05 μM)”. Regarding `CNC(=O)c1ccc(NCC#Cc2cc3c(N[C@H]4CC[C@H](N(C)C)CC4)cccc3n2CC(F)(F)F)c(O)c1` [Compound 98A, 3-hydroxy-N-methyl-4-{[3-(4-{[(1R,4R)-4-(dimethylamino)cyclo-hexyl]amino}-1-(2,2,2-trifluoroethyl)-1H-indol-2-yl)prop-2-yn-1-yl]amino}benzamide], the “SC150 (concentration of the compound required to increase the DNA binding activity by 50%)” value is reported as “+ (+ = 0 μM ≤ SC150 < 0.05 μM)”.

As to `CNC(=O)c1ccc(NCC#Cc2cc3c(N[C@H]4CC[C@@H](N(C)C)CC4)cccc3n2CC(F)(F)F)c(OCCOC)c1` [Compound 99A, 3-(2-methoxyethoxy)-N-methyl-4-{[3-(4-{[(1S,4S)-4-(dimethyl-amino)cyclohexyl]amino}-1-(2,2,2-trifluoroethyl)-1H-indol-2-yl)prop-2-yn-1-yl]amino}benzamide], the “SC150 (concentration of the compound required to increase the DNA binding activity by 50%)” value is on record as “+ (+ = 0 μM ≤ SC150 < 0.05 μM)”. In the case of `CN(C)[C@H]1CC[C@H](Nc2cccc3c2cc(C#CCOc2ccc(S(C)(=O)=O)cc2N)n3CC(F)(F)F)CC1` [Compound 100A, (1R,4R)-N^4-{2-[3-(2-amino-4-methane-sulfonylphenoxy)prop-1-yn-1-yl]-1-(2,2,2-trifluoroethyl)-1H-indol-4-yl}-N^1,N^1-dimethylcyclohexane-1,4-diamine], the “SC150 (concentration of the compound required to increase the DNA binding activity by 50%)” value is “+ (+ = 0 μM ≤ SC150 < 0.05 μM)”.

For the compound `CCNC(=O)c1ccc(NCC#Cc2cc3c(N[C@H]4CC[C@H](N(C)C)CC4)cccc3n2CC(F)(F)F)c(OC)c1` [Compound 101A, N-ethyl-3-methoxy-4-{[3-(4-{[(1R,4R)-4-(dimethylamino)cyclo-hexyl]amino}-1-(2,2,2-trifluoroethyl)-1H-indol-2-yl)prop-2-yn-1-yl]amino}benzamide], the “SC150 (concentration of the compound required to increase the DNA binding activity by 50%)” value is recorded as “+ (+ = 0 μM ≤ SC150 < 0.05 μM)”.
